Where two headings read alike, the source gives them in different places.
Tests used:
[1] = Metabolic stability in human liver microsomes (in vitro half-life); format: in vitro ADME
Experimental: Human liver microsomes (20 mg/mL) are obtained from Xenotech, LLC (Lenexa, Kans.). β-nicotinamide adenine dinucleotide phosphate, reduced form (NADPH), magnesium chloride (MgCl2), and dimethyl sulfoxide (DMSO) are purchased from Sigma-Aldrich. 7.5 mM stock solutions of test compounds were prepared in DMSO. The 7.5 mM stock solutions were diluted to 50 μM in acetonitrile (ACN). The 20 mg/mL human liver microsomes were diluted to 0.625 mg/mL in 0.1 M potassium phosphate buffer, pH 7.4, containing 3 mM MgCl2. The diluted microsomes were added to wells of a 96-well deep-well polypropylene plate in triplicate. A 10 μL aliquot of the 50 μM test compound was added to the microsomes and the mixture was pre-warmed for 10 minutes. Reactions were initiated by addition of pre-warmed NADPH solution. The final reaction volume was 0.5 mL and contained 0.5 mg/mL human liver microsomes, 1.0 μM test compound, and 2 mM NADPH in 0.1 M potassium phosphate buffer, pH 7.4, and 3 mM MgCl2. The reaction mixtures were incubated at 37° C., and 50 μL aliquots were removed at 0, 5, 10, 20, and 30 minutes and added to shallow-well 96-well plates which contained 50 μL of ice-cold ACN with internal standard to stop the reactions. The plates were stored at 4° C. for 20 minutes after which 100 μL of water was added to the wells of the plate before centrifugation to pellet precipitated proteins. Supernatants were transferred to another 96-well plate and analyzed for amounts of parent remaining by LC-MS/MS using an Applied Bio-systems API 4000 mass spectrometer. […] Testing was done in triplicate.

[2] = system: schistosoma; settings: enantiomer comparison, Meyer et al. 2009; cited from earlier work
[3] = FDA label for BILTRICIDE; cited from earlier work
[4] = pH 7.4, Table 3, 0.5 mg/mL HLM, 1.0 μM test compound, 2 mM NADPH, 37° C., read-out: Half-life (t½) Run No. 9
[5] = pH 7.4, Table 3, 0.5 mg/mL HLM, 1.0 μM test compound, 2 mM NADPH, 37° C., read-out: Half-life (t½) Run No. 10
[6] = pH 7.4, Table 3, 0.5 mg/mL HLM, 1.0 μM test compound, 2 mM NADPH, 37° C., read-out: Half-life (t½) Run No. 11
[7] = pH 7.4, Table 3, 0.5 mg/mL HLM, 1.0 μM test compound, 2 mM NADPH, 37° C., read-out: Half-life (t½) Run No. 12
[8] = pH 7.4, Table 3, average of runs 9-12, read-out: Half-life (t½) AVE ± SD
[9] = pH 7.4, Table 1, 0.5 mg/mL HLM, 1.0 μM test compound, 2 mM NADPH, 37° C., read-out: t1/2 Run No. 1
[10] = pH 7.4, Table 1, 0.5 mg/mL HLM, 1.0 μM test compound, 2 mM NADPH, 37° C., read-out: t1/2 Run No. 2
[11] = pH 7.4, Table 1, 0.5 mg/mL HLM, 1.0 μM test compound, 2 mM NADPH, 37° C., read-out: t1/2 Run No. 3
[12] = pH 7.4, Table 1, 0.5 mg/mL HLM, 1.0 μM test compound, 2 mM NADPH, 37° C., read-out: t1/2 Run No. 4
[13] = pH 7.4, Table 1, average of runs 1-4, read-out: t1/2 AVE ± SD
[14] = pH 7.4, Table 2, 0.5 mg/mL HLM, 1.0 μM test compound, 2 mM NADPH, 37° C., read-out: t1/2 Run No. 5
[15] = pH 7.4, Table 2, 0.5 mg/mL HLM, 1.0 μM test compound, 2 mM NADPH, 37° C., read-out: t1/2 Run No. 6
[16] = pH 7.4, Table 2, 0.5 mg/mL HLM, 1.0 μM test compound, 2 mM NADPH, 37° C., read-out: t1/2 Run No. 8
[17] = pH 7.4, Table 2, average of runs 5-8, read-out: t1/2 AVE ± SD
[18] = pH 7.4, Table 2, 0.5 mg/mL HLM, 1.0 μM test compound, 2 mM NADPH, 37° C., read-out: t1/2 Run No. 7

| Structure (SMILES) | half-life at 1 μM [1, 4] | half-life at 1 μM [1, 5] | half-life at 1 μM [1, 6] | half-life at 1 μM [1, 7] | half-life at 1 μM [1, 8] | half-life at 1 μM [1, 12] | half-life at 1 μM [1, 13] | half-life at 1 μM [1, 14] | half-life at 1 μM [1, 15] | half-life at 1 μM [1, 16] | half-life at 1 μM [1, 17] | half-life at 1 μM [1, 18] | other results |
| --- | --- | --- | --- | --- | --- | --- | --- | --- | --- | --- | --- | --- | --- |
| [2H]C1([2H])CCC(C(=O)N2CC(=O)N3CCc4ccccc4[C@@H]3C2)CC1 [101(a), (R)-2-(4,4-d2-Cyclohexanecarbonyl)-2,3,6,7-tetrahydro-1H-pyrazino[2,1-a]isoquinolin-4(11bH)-one] | 48.9 min | 46.7 min | 56.3 min | 45.8 min | 49.4 ± 4.8 min |  |  |  |  |  |  |  |  |
| [2H]C1([2H])C([2H])([2H])C([2H])([2H])C([2H])(C(=O)N2CC(=O)N3CCc4ccccc4[C@@H]3C2)C([2H])([2H])C1([2H])[2H] [102(a), (R)-2-(Cyclohexane-d11-carbonyl)-2,3,6,7-tetrahydro-1H-pyrazino[2,1-a]isoquinolin-4(11bH)-one] | 57.4 min | 53.6 min | 50.1 min | 46 min | 51.8 ± 4.9 min |  |  |  |  |  |  |  |  |
| [2H]C1([2H])C(C(=O)N2CC(=O)N3CCc4ccccc4[C@@H]3C2)C([2H])([2H])C([2H])([2H])C([2H])([2H])C1([2H])[2H] [103(a), (R)-2-(2,2,3,3,4,4,5,5,6,6-d10-Cyclohexanecarbonyl)-2,3,6,7-tetrahydro-1H-pyrazino[2,1-a]isoquinolin-4(11bH)-one] | 52.7 min |  | 50 min | 55.5 min | 50 ± 5.9 min |  |  |  |  |  |  |  |  |
| [2H]C1([2H])CC(C(=O)N2CC(=O)N3CCc4ccccc4[C@@H]3C2)CC([2H])([2H])C1([2H])[2H] [109(a), (R)-2-(3,3,4,4,5,5-d6-Cyclohexanecarbonyl)-2,3,6,7-tetrahydro-1H-pyrazino[2,1-a]isoquinolin-4(11bH)-one] | 39.5 min | 38.7 min | 43.2 min | 55.4 min | 44.2 ± 7.7 min |  |  |  |  |  |  |  |  |
| O=C(C1CCCCC1)N1CC(=O)N2CCc3ccccc3[C@@H]2C1 [(R) Praziquantel] |  |  |  |  |  |  |  |  |  |  |  |  | schistosomicidal activity [2]: has schistosomicidal activity |
| [2H]C1([2H])CCC(C(=O)N2CC(=O)N3CCc4ccccc4C3C2)CC1 (centres unmarked) [Compound 101, 2-(Cyclohexane-4,4-d2-carbonyl)-2,3,6,7-tetrahydro-1H-pyrazino[2,1-a]isoquinolin-4(11bH)-one] |  |  |  |  |  | 52.7 min | 46.7 ± 4.4 min | 56.7 min | 53.9 min | 60.1 min | 52.2 ± 9.7 min |  | half-life at 1 μM [1, 9]: 47.4 min; half-life at 1 μM [1, 10]: 43.6 min; half-life at 1 μM [1, 11]: 43.1 min |
| [2H]C1([2H])C([2H])([2H])C([2H])([2H])C([2H])(C(=O)N2CC(=O)N3CCc4ccccc4C3C2)C([2H])([2H])C1([2H])[2H] (centres unmarked) [Compound 102, 2-(Cyclohexane-d11-carbonyl)-2,3,6,7-tetrahydro-1H-pyrazino[2,1-a]isoquinolin-4(11bH)-one] |  |  |  |  |  | 66.2 min | 55.7 ± 8.7 min | 54.8 min | 50.6 min | 52.4 min | 50.7 ± 4.2 min | 44.9 min | half-life at 1 μM [1, 9]: 56.4 min; half-life at 1 μM [1, 10]: 55.4 min; half-life at 1 μM [1, 11]: 44.8 min |
| [2H]C1([2H])C(C(=O)N2CC(=O)N3CCc4ccccc4C3C2)C([2H])([2H])C([2H])([2H])C([2H])([2H])C1([2H])[2H] (centres unmarked) [Compound 103, 2-(Cyclohexane-2,2,3,3,4,4,5,5,6,6-d10-carbonyl)-2,3,6,7-tetrahydro-1H-pyrazino[2,1-a]isoquinolin-4(11bH)-one] |  |  |  |  |  |  |  | 65.1 min | 51.6 min | 69.3 min | 61.7 ± 7.6 min | 60.6 min |  |
| [2H]C1([2H])CC(C(=O)N2CC(=O)N3CCc4ccccc4C3C2)CC([2H])([2H])C1([2H])[2H] (centres unmarked) [Compound 109, 2-(Cyclohexane-3,3,4,4,5,5,-d6-carbonyl)-2,3,6,7-tetrahydro-1H-pyrazino[2,1-a]isoquinolin-4(11bH)-one] |  |  |  |  |  |  |  | 55.7 min | 53.5 min | 51.2 min | 52.2 ± 4.6 min | 46.4 min |  |
| O=C(C1CCCCC1)N1CC(=O)N2CCc3ccccc3C2C1 (centres unmarked) [Praziquantel, 2-(cyclohexylcarbonyl)-1,2,3,6,7,11b-hexahydro-4H-pyrazino[2,1-a]isoquinolin-4-one, reference compound] | 29.5 min | 31.5 min | 35.1 min | 30.5 min | 31.7 ± 2.5 min | 44.7 min | 38.9 ± 3.9 min | 41.2 min | 43.8 min | 36.9 min |  | 30.6 min | portion of a dose excreted in the kidneys [3]: Approximately 80%; portion of the renally excreted dose in the form of metabolites [3]: > 99% |
